Where two headings read alike, the source gives them in different places.
Key:
[1] = LC-MS/MS metformin concentration in plasma; conditions: 24 hrs after LPS challenge, oral and i.p.
Experimental: Pooled mice plasma (CD-1 (ICR) MSE00PLK2, BioIVT) was selected as blank matrix for standards and quality control samples. Sample preparation procedure was adopted from literatures with minor modifications. […] The samples mix were vortexed for 2 minutes then sonicated for 1 min and centrifuged at 6100 g for 10 min. Supernatants were transferred into a new set 96-well plate, and 10 μL were injected for LC-MS/MS analysis. […] The solution was then serially diluted with 50% methanol-water to obtain standard working solutions over a concentration range of 10-2000 ng/ml. The quality control (QC) samples were prepared in three concentrations: 10, 100, and 500 ng/ml.
LC-MS/MS system was performed using an Agilent 1290 Infinity HPLC and HiP ALS (Autosampler) coupled with AB Sciex 6500 Q-Trap mass spectrometer. All data were acquired using Analyst (AB SCIEX v1.7.1). […] The mobile phase A was 20 mM ammonium acetate buffer in water and 100% acetonitrile as mobile phase B. A total 7 min gradient run with a flow rate of 0.8 ml/min was implemented. […] The mass spectrometer was operated in a positive mode using scheduled multiple reaction morning (sMRM).

BMDM [2] = experiment: Mitochondrial function in BMDM (TMRM, MitoSOX, cellular ATP); type: cell-based, mouse
POLγ = POLγ activity assay in lysates of treated macrophages; type: cell-based, mouse
BMDM [3] = experiment: Q-PCR quantitation of cytokine mRNAs in LPS-stimulated BMDM; type: cell-based, mouse
Experimental: RNA was extracted using AllPrep DNA/RNA Mini kit, and cDNA was synthesized using SuperScript™ VILO™ cDNA Synthesis Kit. mRNA expression was determined by QPCR in a CFX96 thermal cycler (Biorad) as described (Zhong et al., 2016). Data are presented in arbitrary units and calculated by the 2^(−ΔΔCT) method. Primer sequences were obtained from the NIH qPrimerDepot (http://mouseprimerdepot.nci.nih.gov) and provided by Integrated DNA technologies.

BMDM [4] = experiment: Cytokine secretion by LPS-stimulated BMDM (ELISA); type: cell-based, mouse; conditions: LPS-stimulated BMDM, metformin 0.5 mM 16 hrs
Source text: (§1) Paired antibodies (capture and detection) and standard recombinant mouse IL-1β (R&D Systems), and TNF and IL-6 (eBioscience) were used to determine mouse cytokine concentrations according to manufacturer's instructions.

NLRP3 inflammasome [5] = experiment: NLRP3 inflammasome activation in LPS-primed BMDM; type: cell-based, mouse
LPS-induced ARDS = conditions: for protection from LPS-induced ARDS: last dose 30 min prior to 5 mg/kg LPS
Experimental: Briefly, 5 mg/kg LPS or vehicle was i.p. injected and the mice were euthanized 8, 24 or 48 hrs later. […] In all cases, at the experimental endpoint the lungs were inflated with cold PBS, excised and fixed in 10% formalin for histological evaluation.
as §1
Lungs were fixed in 10% formalin for 24 hrs and embedded in paraffin, sectioned and stained with hematoxylin and eosin (H&E) to evaluate gross morphology and lung damage and inflammation; and with Sirius red to determine collagen buildup. Ten to twelve H&E stained sections from each animal were scored for the degree of lung inflammation and damage by two blinded mouse lung pathology experts as described (Jupelli et al., 2013), and the scores were averaged. Briefly, the degree of lung inflammation was assigned an arbitrary score of 0 (normal=no inflammation, no airway thickening, no edema), 1 (minimal cellular infiltration, and minimal edema), 2 (mild-moderate cellular infiltration, plus mild airway thickening and mild edema), 3 (severe cellular infiltration, plus diffuse airway thickening and severe edema) in 10-12 fields per mouse.
Lung sections were subjected to incubation with antibodies specific for F4/80 (macrophage marker), myeloperoxidase (MPO, neutrophil marker), c/EBPb, NFATc2 and NFATc3. Stained areas were quantified using ImageJ software.
NLRP3 inflammasome activation in the lung was detected by immunofluorescence co-staining with F4/80 and ASC antibodies. Briefly, lung sections were hydrated and boiled at 96° C. in citrate buffer 1× for 20 min. Sections were blocked with 2% BSA/PBS1X containing 1% normal horse serum for 1 hr at room temperature. F4/80 and ASC antibodies were incubated in blocking solution overnight at 4° C. After washing, Alexa secondary antibodies were added and the sections were incubated in 2% BSA/PBS1X for 1 hr at room temperature. Sections were washed, incubated with DAPI, and mounted using FluoSave. Sections were imaged through a Leica SP5 confocal microscope. The percentage of F4/80^+ cells with ASC specks were quantified in 18-26 high magnification fields from 4-5 mice per group.

BMDM [6] = conditions: for recruitment of DRP1 to mitochondria / recruitment of p62 to mitochondria: metformin 0.5 mM
NLRP3 inflammasome [7] = experiment: NLRP3 inflammasome activation in human macrophages; type: cell-based; conditions: LPS 20 ng/ml 3 hrs, ATP 2 mM 30 min, metformin 0.5 mM 16 hrs
[8] = LPS-primed BMDM, metformin 0.5 mM 16 h
[9] = BMDM, metformin 0.5 mM 16 h, LPS
[10] = BMDM, metformin 0.5 mM 16 h, LPS 4 h
[11] = Cmpk2ΔMye mice, 50 mg/kg metformin
[12] = therapeutic, 50 mg/kg i.p. after LPS

CN(C)C(=N)NC(=N)N [metformin, N,N-dimethylbiguanide]
circulating concentrations [1]: equally low | ATP or nigericin induced decrease of mitochondrial membrane potential and increase of mtROS (BMDM [2]; [8]): blunted both responses | drop in ATP concentration (BMDM [2]; LPS-primed versus non-stimulated macrophages): larger drop | mitochondrial membrane potential (BMDM [2]; non-stimulated macrophages, metformin alone): decreased | POLγ activity (POLγ; lysates of LPS-stimulated macrophages, assay mix lacking exogenous ATP): decreased | effect of AMPKα1 deficiency on POLγ expression or activity (POLγ; lysates of metformin treated LPS stimulated BMDM): no effect | POLγ activity (POLγ; lysates of metformin treated LPS-stimulated macrophages, addition of ATP at 10 mM): fully restored | Il1b and Il6 mRNA after metformin treatment (BMDM [3]; AMPKα1 silenced (shPrkaa1) LPS-treated macrophages): still declined | decline in Il1b and Il6 mRNA induction by LPS (BMDM [3]; BMDM, metformin 0.5 mM 16 h): 30-50% | induction of Ifnb and Ifng mRNAs (BMDM [3]; [9]): did not inhibit induction | induction of Il10 mRNA (BMDM [3]; [9]): potentiated induction | other cytokine and chemokine mRNAs (Tnf, Il12, Il23, Ccl2, Ccl3, Ccl4, Ccl5) (BMDM [3]; BMDM, metformin 0.5 mM 16 h, LPS 100 ng/ml 4 hrs): little effect | Il1b and Il6 mRNA expression (BMDM [3]; LPS-stimulated Il10−/− BMDM): still inhibited | IL-6 secretion (BMDM [4]): inhibited | TNF release (BMDM [4]): unaffected | nigericin- and ATP-induced ASC speck formation (NLRP3 inflammasome [5]; BMDM, metformin 0.5 mM 16 h): inhibited | expression of inflammasome components NLRP3, ASC, pro-Casp1 and NEK7 (NLRP3 inflammasome [5]; [10]): no effect | pro-IL 1β protein (NLRP3 inflammasome [5]; [10]): modestly decreased | inhibition of nigericin-induced ASC specks (NLRP3 inflammasome [5]; BMDM, nigericin): incomplete | effect of AMPKα1 ablation on inhibition of Casp1 activation or IL-1β processing and secretion by metformin (NLRP3 inflammasome [5]; LPS-primed Ampkα1−/− BMDM stimulated with ATP): no effect | LDH release (NLRP3 inflammasome [5]; LPS-primed BMDM with NLRP3 agonists, metformin 0.5 mM 16 hrs): reduced | gasdermin D (GSDMD) cleavage (NLRP3 inflammasome [5]; [8]): inhibited | Casp1 activation and pro-IL-1β processing to mature IL-1β (NLRP3 inflammasome [5]; LPS-primed macrophages with ATP, nigericin, alum or MSU, metformin 0.5 mM 16 h): inhibited | IL-1β and Casp1 p20 release (NLRP3 inflammasome [5]; Ndufs4-deficient BMDM, LPS + ATP, metformin 0.5 mM 16 hrs): did not further reduce | effect on Casp1 activation and pro-IL-1β processing (NLRP3 inflammasome [5]; nigericin-challenged macrophages): relatively modest | Casp1 activation and IL-1β secretion (NLRP3 inflammasome [5]; p62- and ATG7-deficient macrophages, LPS + ATP): still inhibited | protection from LPS-induced ARDS (LPS-induced ARDS; 10 mg/kg i.p. three consecutive days): modest protective effect | protection from LPS-induced ARDS (LPS-induced ARDS; 50 mg/kg i.p. three consecutive days): strong protection | IL-1β and IL-6 in BALF (LPS-induced ARDS; 50 mg/kg prophylactic): decreased | TNF in BALF (LPS-induced ARDS; 50 mg/kg prophylactic): no effect | collagen buildup (LPS-induced ARDS; 50 mg/kg prophylactic): abrogated | infiltration of inflammatory cells into bronchioles, vascular bed and lung parenchyma (LPS-induced ARDS; 50 mg/kg prophylactic): inhibited | macrophage and neutrophil infiltration (LPS-induced ARDS; 50 mg/kg prophylactic, F4/80 and MPO staining): strongly inhibited | septa thickening (LPS-induced ARDS; 50 mg/kg prophylactic, lung histology): prevented | c/EBPβ activation and IL-6 secretion to BALF (LPS-induced ARDS; [11]): did inhibit | lung pathology or IL-1β secretion (LPS-induced ARDS; [11]): did not result in noticeable improvement | preventive efficacy of oral metformin (LPS-induced ARDS; drinking water 400 mg/kg starting 48 hrs prior to LPS): as protective as injected metformin | ASC speck formation in lung (LPS-induced ARDS; prophylactic metformin): limited | c/EBPβ and NFAT activation in lung (LPS-induced ARDS; prophylactic metformin): limited | IL-1β in BALF (LPS-induced ARDS; [12]): decreased | macrophage and neutrophil infiltration (LPS-induced ARDS; [12]): inhibited | expression of CMPK2 (BMDM [6]; BMDM, LPS 4 hrs, metformin 0.5 mM 16 hrs): no effect | POLγ expression (BMDM [6]; BMDM, metformin): no effect | AMPK phosphorylation (BMDM [6]; BMDM, metformin 0.5 mM 16 h): increased | p38 or JNK MAP kinase activation (BMDM [6]; BMDM, metformin 0.5 mM 16 hrs, LPS 30 min): blunted | nuclear translocation of NFAT family members and c/EBPb (BMDM [6]; BMDM, metformin 0.5 mM 16 hrs, LPS 4 hrs): decreased | LPS-induced p65/RelA nuclear translocation or phosphorylation (BMDM [6]; BMDM, metformin 0.5 mM overnight, LPS): did not interfere | STAT1 or STAT3 phosphorylation (BMDM [6]; BMDM, metformin pretreatment, LPS): did not inhibit | recruitment of DRP1 to mitochondria (BMDM [6]; LPS primed cells): enhancing it | recruitment of DRP1 to mitochondria (BMDM [6]; LPS+ATP challenged macrophages): not affecting it | recruitment of p62 to mitochondria (BMDM [6]; LPS-primed cells not ATP exposed): enhanced | recruitment of p62 to mitochondria (BMDM [6]; after LPS+ATP stimulation): did not affect | Casp1 p20 and IL-1β secretion (NLRP3 inflammasome [7]): abrogated

Source: patent US12642780B2, “Methods and compositions to treat and prevent viral infections and acute respiratory distress syndrome” (priority 2020, dated 2026)
